The results in this text go back to patent US20110039825A1, “LIGANDS OF ALPHA-ADRENOCEPTORS, DOPAMINE, HISTAMINE, IMIDAZOLINE AND SEROTONIN RECEPTORS AND THEIR USE” (Alla Chem, LLC, priority 2007, published 2011).

The target in assay [1] is T1, recombinant human 5-HT2C receptor (Homo sapiens, UniProt P28335).
T1 construct: expressed in transfected cells; host or cells: CHO-K1
T1 sequence (P28335 33-458): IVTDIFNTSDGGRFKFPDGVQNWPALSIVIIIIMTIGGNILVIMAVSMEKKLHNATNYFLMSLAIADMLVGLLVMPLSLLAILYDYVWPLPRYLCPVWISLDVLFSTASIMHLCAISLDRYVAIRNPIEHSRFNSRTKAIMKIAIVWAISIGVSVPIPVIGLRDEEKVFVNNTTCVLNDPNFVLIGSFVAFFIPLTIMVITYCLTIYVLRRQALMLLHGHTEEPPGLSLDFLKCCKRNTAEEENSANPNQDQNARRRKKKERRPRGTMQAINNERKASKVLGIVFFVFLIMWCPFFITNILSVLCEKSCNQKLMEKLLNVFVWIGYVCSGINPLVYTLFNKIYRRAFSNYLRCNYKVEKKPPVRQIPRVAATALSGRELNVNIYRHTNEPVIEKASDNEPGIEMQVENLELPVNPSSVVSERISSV
Description: radioligand binding to serotonin receptor 5-HT2C ([3H] Mesulergine). Conditions: for 5-HT2C % inhibition: 10 μM ligand. From the text: J. Neurochem. 69: 1449-1458, 1997]. […] SB242084 is used as positive control.

The target of assay [2] is T2, recombinant human 5-HT6 receptor (Homo sapiens, UniProt P50406).
T2 construct: expressed in transfected cells; host or cells: HeLa
Kind of assay: radioligand binding to serotonin receptor 5-HT6 ([3H] Lysergic acid diethylamide). From the text: Mol. Pharmacol. 43:320-327, 1993]. […] Methiothepin is used as positive control.

Another assay has as its target T3, recombinant human 5-HT1A (Homo sapiens, UniProt P08908).
T3 construct: expressed in transfected cells; host or cells: CHO
T3 sequence (P08908 1-422): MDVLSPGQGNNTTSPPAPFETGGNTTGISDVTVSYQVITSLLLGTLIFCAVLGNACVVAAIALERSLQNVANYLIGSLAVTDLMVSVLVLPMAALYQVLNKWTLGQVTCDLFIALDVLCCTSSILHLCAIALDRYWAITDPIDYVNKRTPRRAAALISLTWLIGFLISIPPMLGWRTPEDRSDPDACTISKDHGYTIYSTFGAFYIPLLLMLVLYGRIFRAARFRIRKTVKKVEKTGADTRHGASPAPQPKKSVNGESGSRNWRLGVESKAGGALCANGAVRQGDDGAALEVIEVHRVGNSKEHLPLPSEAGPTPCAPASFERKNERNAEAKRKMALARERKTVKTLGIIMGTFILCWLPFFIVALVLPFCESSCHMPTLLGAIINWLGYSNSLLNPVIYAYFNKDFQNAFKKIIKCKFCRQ
Description: radioligand binding to serotonin receptor 5-HT1A ([3H] 8-OH-DPAT). The conditions noted are these: for inhibition at 1 µM: ligand concentration 1 μM; for 5-HT1A % inhibition: 10 μM ligand. From the text: J Pharmacol Exp Ther. 306(1): 301-309, 2003]. […] Metergoline is used as positive control.

The target of a further assay is T4, human α2A receptor (Homo sapiens, UniProt P08913).
T4 construct: expressed in transfected cells; host or cells: Sf9
T4 sequence (P08913 1-465): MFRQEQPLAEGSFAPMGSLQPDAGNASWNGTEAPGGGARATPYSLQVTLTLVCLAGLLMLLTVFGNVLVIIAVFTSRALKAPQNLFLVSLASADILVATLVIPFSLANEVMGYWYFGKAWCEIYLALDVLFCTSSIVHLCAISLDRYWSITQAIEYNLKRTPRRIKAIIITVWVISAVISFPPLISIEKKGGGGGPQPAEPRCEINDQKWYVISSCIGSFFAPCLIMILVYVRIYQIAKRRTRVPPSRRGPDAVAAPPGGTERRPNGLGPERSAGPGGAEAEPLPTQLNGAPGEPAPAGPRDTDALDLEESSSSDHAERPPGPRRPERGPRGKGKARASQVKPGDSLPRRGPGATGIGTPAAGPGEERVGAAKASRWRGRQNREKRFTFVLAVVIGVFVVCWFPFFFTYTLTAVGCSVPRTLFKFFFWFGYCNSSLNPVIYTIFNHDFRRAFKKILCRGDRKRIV
Description: radioligand binding to adrenergic receptor α2A ([3H] MK-912). The conditions noted are these: 10 μM ligand. From the text: J Pharmacol ExpTher. […] Yohimbine is used as positive control.

A further assay concerns the target T5, human 5-HT7 receptor (Homo sapiens, UniProt P34969).
T5 construct: expressed in transfected cells; host or cells: CHO
Kind of assay: radioligand binding to serotonin receptor 5-HT7 ([3H] Lysergic acid diethylamide). Conditions: 10 μM ligand. From the text:
For this purpose sDNA of human 5-HT7 receptor is expressed in CHO cells as it was described in [Shen Y, Monsma F J Jr, Metcalf M A, Jose P A, Hamblin M W, and Sibley DR. […] J. Biol. Chem. 1993, 268, 18200-18204]. […] J. Pharmacol. Exp. Ther. 1994, 268:1403-1410]. […] Methiothepin is used as positive control.

The target of assay [3] is T6, recombinant human 5-HT2B receptor (Homo sapiens, UniProt P41595).
T6 construct: expressed in transfected cells; host or cells: CHO-K1
Description: radioligand binding to serotonin receptor 5-HT2B ([3H] Lysergic acid diethylamide). The conditions noted are these: 10 μM ligand.
Description: Screening of the disclosed compounds for potential ability to interact with serotonin receptor 5-HT2A is carried out by method of radioligand binding. For this purpose membrane species are prepared from CHO-K1 cells comprising recombinant human 5-HT2B receptor by homogenization of recombinant cells in glass homogenizer with the subsequent separation of plasmatic membranes from cell nuclei, mitochondrias and cell wreckages by differential centrifugation. […] After incubation the samples are filtered in vacuo on glass-microfiber filters G/F (Millipor, USA), filters are washed three times with cold solution of medium and radioactivity is measured by scintillation counter MicroBeta 340 (Perkin Elmer, USA). […] Ketanserin is used as positive control. The tested compounds' binding to the receptor is determined by their ability to displace the radioligand and is expressed in percent of displacement (% I). Values of % I are calculated according to the following equation:
wherein: TA—is the overall radioactivity in the presence of radioligand only, CA—is the radioactivity in the presence of radioligand and tested compound and NA—is the radioactivity in the presence of radioligand and Serotonin (10 μM).

As usually defined, the inhibition is how much of the control response was suppressed.

T5 sequence (P34969 whole entry): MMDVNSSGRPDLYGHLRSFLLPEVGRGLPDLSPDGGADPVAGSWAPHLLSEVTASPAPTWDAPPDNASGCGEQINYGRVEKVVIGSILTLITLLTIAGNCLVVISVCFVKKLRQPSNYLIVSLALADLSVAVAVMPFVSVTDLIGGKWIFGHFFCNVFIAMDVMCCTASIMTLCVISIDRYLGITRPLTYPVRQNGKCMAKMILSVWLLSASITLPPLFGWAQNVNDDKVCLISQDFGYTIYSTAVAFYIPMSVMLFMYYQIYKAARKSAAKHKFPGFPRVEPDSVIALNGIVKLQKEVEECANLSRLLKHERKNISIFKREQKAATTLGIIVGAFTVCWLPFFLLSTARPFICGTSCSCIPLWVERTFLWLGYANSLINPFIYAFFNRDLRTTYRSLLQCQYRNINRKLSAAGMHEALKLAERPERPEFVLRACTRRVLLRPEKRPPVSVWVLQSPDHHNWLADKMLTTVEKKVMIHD
T6 sequence (P41595 whole entry): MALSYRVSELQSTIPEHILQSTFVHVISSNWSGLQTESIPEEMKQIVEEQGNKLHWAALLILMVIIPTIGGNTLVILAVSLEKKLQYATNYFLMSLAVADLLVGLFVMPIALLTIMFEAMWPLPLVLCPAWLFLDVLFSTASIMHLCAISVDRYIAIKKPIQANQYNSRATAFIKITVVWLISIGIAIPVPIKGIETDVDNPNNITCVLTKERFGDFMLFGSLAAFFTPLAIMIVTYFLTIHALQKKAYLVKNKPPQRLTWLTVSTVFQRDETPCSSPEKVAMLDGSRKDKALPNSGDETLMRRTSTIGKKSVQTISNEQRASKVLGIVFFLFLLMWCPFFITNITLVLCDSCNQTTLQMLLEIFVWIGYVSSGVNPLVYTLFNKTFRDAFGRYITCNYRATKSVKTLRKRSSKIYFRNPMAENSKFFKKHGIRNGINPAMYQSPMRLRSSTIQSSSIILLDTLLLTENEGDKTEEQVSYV
T2 sequence (P50406 whole entry): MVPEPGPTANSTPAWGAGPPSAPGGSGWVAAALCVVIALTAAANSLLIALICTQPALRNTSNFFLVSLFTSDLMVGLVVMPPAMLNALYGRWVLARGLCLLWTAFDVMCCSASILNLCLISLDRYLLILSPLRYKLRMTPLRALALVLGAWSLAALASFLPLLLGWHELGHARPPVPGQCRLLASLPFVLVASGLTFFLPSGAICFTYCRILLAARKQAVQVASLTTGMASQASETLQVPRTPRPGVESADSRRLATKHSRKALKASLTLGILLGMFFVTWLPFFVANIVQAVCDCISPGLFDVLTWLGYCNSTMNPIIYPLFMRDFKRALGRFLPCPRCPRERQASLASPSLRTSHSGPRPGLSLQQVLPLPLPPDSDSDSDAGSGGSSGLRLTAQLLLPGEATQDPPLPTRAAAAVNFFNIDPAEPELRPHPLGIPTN

For the compound `Cc1ccc2c(c1)c1c(n2CCc2ccncc2)CCCN(C)C1` [1.2.2(5-2)], the inhibition at 1 µM in assay [1] (ligand concentration 1 μM) came out at 92%; in assay [2] (ligand concentration 1 μM, read-out: 5-HT6 % inhibition), 84%; on recombinant human 5-HT1A it was 13%. In addition, the “α-Adrenoceptor α2A, % inhibition” value at human α2A receptor was 74%.

Consider `Cc1ccc2c(c1)c1c(n2CCc2ccc(F)cc2)CCN(C)C1.Cl` [1.1.2(1-16)•HCl], for which the 5-HT7 % inhibition at human 5-HT7 receptor is on record as 95%. The 5-HT6 % inhibition in assay [2] (10 μM ligand) amounted to 103%. Further, the 5-HT1A % inhibition at recombinant human 5-HT1A was 37%.

For the compound `CN1CCc2c(c3cc(F)ccc3n2CC(O)c2ccccc2)C1` (centres unmarked) [1.1.2(1-9)], the 5-HT2C % inhibition in assay [1] is 89%. Also, the 5-HT2B % inhibition in assay [3] came out at 50%.

Take `Cc1ccc2c(c1)c1c(n2CCc2ccc(C(F)(F)F)cc2)CCN(C)C1.Cl` [1.1.2(1-18)•HCl]: the 5-HT7 % inhibition on human 5-HT7 receptor was 103%. Besides, on recombinant human 5-HT1A, the 5-HT1A % inhibition amounted to 53%.

Take `CN1CCc2c(c3cc(C(F)(F)F)ccc3n2CCc2ccccc2)C1.Cl` [1.1.2(1-7)•HCl, 2-methyl-8-trifluoromethyl-5-phenethyl-1,2,3,4-tetrahydro-1H-pyrido[4,3-b]indole]: the 5-HT7 % inhibition at human 5-HT7 receptor is 94%.

With `Cc1ccc2c(c1)c1c(n2CC(O)c2ccccc2)CCN(C)C1` (centres unmarked) [1.1.2(1-10), 2,8-dimethyl-5-[(2-phenyl-2-hydroxy)ethyl]-1,2,3,4-tetrahydro-1H-pyrido[4,3-b]indole], the 5-HT2C % inhibition in assay [1] came to 96%. In assay [3], the 5-HT2B % inhibition is 79%.

On to `CN1CCc2c(c3cc(F)ccc3n2C#Cc2ccccc2)C1` [1.1(2)], for which the 5-HT2C % inhibition in assay [1] is 100%. The 5-HT2B % inhibition in assay [3] worked out at 92%.

Take `Cc1ccc(CCn2c3c(c4cc(F)ccc42)CN(C)CCC3)cn1` [1.2.2(4-2)•2HCl]: on recombinant human 5-HT1A, the inhibition at 1 µM amounted to 31%.
